Laboratory results: article PMC12564265, “Navigating the Deep Eutectic Solvent Landscape: Experimental and Machine Learning Solubility Explorations of Syringic, p-Coumaric, and Caffeic Acids” (International Journal of Molecular Sciences, 2025)
Values joined by “and” are separate entries in the source; they are usually repeats but may differ in a detail not shown here. Identical values can stand only once.

Columns and labels:
[1] = Shake-flask solubility with spectrophotometric measurement in neat deep eutectic solvents; assay type: physicochemical
Protocol: (§1) In order to determine the solubility of the three studied phenolic acids in deep eutectic solvents, a very well-established shake-flask method coupled with spectrophotometric measurements was utilized. The initial procedure involved the preparation of various DESs, which was conducted by mixing their HBA and HBD counterparts in a glass vessel and heating the composition until the formation of a transparent, uniform liquid. […] For additional measurements, the DESs were mixed with water in varying proportions, creating aqueous DES systems. Saturated solutions of CAF, SYR, and COU were obtained by adding excess amounts of these compounds to test tubes containing either a neat deep eutectic solvent or its aqueous solution. Such samples were placed in the Orbital Shaker Incubator ES-20/60 from Biosan (Riga, Latvia) and heated for 24 h at 25 °C, 30 °C, 35 °C, and 40 °C (±0.1 °C) with simultaneous mixing at 60 rpm. Before measurements, the samples were filtered using a PTFE syringe filter from Qpore (Dallas, TX, USA) with a 0.22 μm pore size. In order to avoid possible precipitation of the saturated solutions at decreased temperatures, the test tubes, syringes, pipette tips, and filters were kept at a temperature identical to that of the samples. The spectrophotometric measurements required the preparation of calibration curves for the three APIs. This involved the preparation of a stock solution of each compound in methanol, which was later successfully diluted, and the obtained solutions of varying concentrations were measured using an A360 spectrophotometer from AOE Instruments (Shanghai, China). The wavelength range was set to 200-500 nm, and the resolution was 1 nm. The analytical wavelengths were determined to be 324 nm for caffeic acid, 273 nm for syringic acid, and 308 nm for p-coumaric acid. The final regression equations, obtained after averaging three distinct sets of measurements, are collected in Table 2 together with determination coefficients and limits of detection (LOD) and quantification (LOQ) for the calibration curves. The measurements of the samples were conducted with the same spectrophotometer and identical settings. Methanol was used for the dilution of the samples so that they could remain within the linearity range of the method. Complete spectra of the samples were recorded, but for the solubility determination, the absorbance values at a specific analytical wavelength were considered. These values were combined with the corresponding regression equations of the calibration curves and served for the calculation of the concentration of the three phenolic acids in the studied samples. The densities of such samples were also measured, and for this task 1 mL of each sample was weighed to a precision of 0.1 mg using an AS 110 R2.PLUS analytical balance from […] (Radom, Poland). The obtained densities enabled the calculation of mole fractions of CAF, SYR, and COU dissolved in the studied DESs. For each considered system, three distinct measurements were conducted, and the results were averaged.

[2] = Shake-flask solubility with spectrophotometric measurement in aqueous DES mixtures; assay type: physicochemical; details: Bet – TEG 1:2 + water
Protocol: as §1

Work on `O=C(O)C=Cc1ccc(O)c(O)c1` [caffeic acid, 3,4-dihydroxycinnamic acid] yielded a Mole fraction solubility ([1]; neat DES Bet - DEG, HBA:HBD molar ratio 1:1, 25 °C) of 0.0497±0.0004 mole fraction, a Mole fraction solubility ([1]; neat DES Bet - DEG, HBA:HBD molar ratio 1:2, 25 °C) of 0.0576±0.0005 mole fraction and a Mole fraction solubility ([1]; neat DES Bet - DEG, HBA:HBD molar ratio 1:4, 25 °C) of 0.0537±0.0004 mole fraction. It also gave a Mole fraction solubility ([1]; neat DES Bet - ETG, HBA:HBD molar ratio 1:1, 25 °C) of 0.0411±0.0004 mole fraction, a Mole fraction solubility ([1]; neat DES Bet - ETG, HBA:HBD molar ratio 1:2, 25 °C) of 0.0458±0.0004 mole fraction and a Mole fraction solubility ([1]; neat DES Bet - GLY, HBA:HBD molar ratio 1:1, 25 °C) of 0.0561±0.0004 mole fraction. The Mole fraction solubility ([1]; neat DES Bet - GLY, HBA:HBD molar ratio 1:2, 25 °C) was 0.0622±0.0006 mole fraction, the Mole fraction solubility ([1]; neat DES Bet - GLY, HBA:HBD molar ratio 1:4, 25 °C) was 0.0573±0.0002 mole fraction and the Mole fraction solubility ([1]; neat DES Bet - TEG, HBA:HBD molar ratio 1:1, 25 °C) was 0.0655±0.0012 mole fraction. For the same compound, the Mole fraction solubility ([1]; neat DES Bet - TEG, HBA:HBD molar ratio 1:2, 25 °C) was 0.0755±0.0010 mole fraction, the Mole fraction solubility ([1]; neat DES Bet - TEG, HBA:HBD molar ratio 1:2, 25 °C, listed as Caffeic acid) was 0.0755 mole fraction and the Mole fraction solubility ([1]; neat DES Bet - TEG, HBA:HBD molar ratio 1:4, 25 °C) was 0.0716±0.0007 mole fraction. The Mole fraction solubility ([1]; neat DES ChCl - DEG, HBA:HBD molar ratio 1:1, 25 °C) was 0.0584±0.0003 mole fraction, the Mole fraction solubility ([1]; neat DES ChCl - DEG, HBA:HBD molar ratio 1:2, 25 °C) was 0.0664±0.0005 mole fraction and the Mole fraction solubility ([1]; neat DES ChCl - ETG, HBA:HBD molar ratio 1:1, 25 °C) was 0.0435±0.0004 mole fraction. For the same compound, the Mole fraction solubility ([1]; neat DES ChCl - ETG, HBA:HBD molar ratio 1:2, 25 °C) was 0.0494±0.0003 mole fraction, the Mole fraction solubility ([1]; neat DES ChCl - ETG, HBA:HBD molar ratio 1:4, 25 °C) was 0.0471±0.0003 mole fraction and the Mole fraction solubility ([1]; neat DES ChCl - TEG, HBA:HBD molar ratio 1:2, 25 °C) was 0.0835 mole fraction. It also gave a Mole fraction solubility ([2]; x*DES 0.1, 25°C) of 0.0077±0.0001 mole fraction, a Mole fraction solubility ([2]; x*DES 0.1, 30°C) of 0.0087±0.0001 mole fraction and a Mole fraction solubility ([2]; x*DES 0.1, 35°C) of 0.0101±0.0001 mole fraction. For the same compound, the Mole fraction solubility ([2]; x*DES 0.1, 40°C) was 0.0121±0.0001 mole fraction, the Mole fraction solubility ([2]; x*DES 0.2, 25°C) was 0.0155±0.0001 mole fraction and the Mole fraction solubility ([2]; x*DES 0.2, 30°C) was 0.0195±0.0002 mole fraction. For the same compound, the Mole fraction solubility ([2]; x*DES 0.2, 35°C) was 0.0203±0.0002 mole fraction, the Mole fraction solubility ([2]; x*DES 0.2, 40°C) was 0.0243±0.0003 mole fraction and the Mole fraction solubility ([2]; x*DES 0.3, 25°C) was 0.0243±0.0002 mole fraction. For the same compound, the Mole fraction solubility ([2]; x*DES 0.3, 30°C) was 0.0271±0.0002 mole fraction, the Mole fraction solubility ([2]; x*DES 0.3, 35°C) was 0.0318±0.0002 mole fraction and the Mole fraction solubility ([2]; x*DES 0.3, 40°C) was 0.0377±0.0003 mole fraction. It also gave a Mole fraction solubility ([2]; x*DES 0.4, 25°C) of 0.0343±0.0002 mole fraction, a Mole fraction solubility ([2]; x*DES 0.4, 30°C) of 0.0379±0.0001 mole fraction and a Mole fraction solubility ([2]; x*DES 0.4, 35°C) of 0.0450±0.0002 mole fraction. The Mole fraction solubility ([2]; x*DES 0.4, 40°C) was 0.0538±0.0003 mole fraction, the Mole fraction solubility ([2]; x*DES 0.5, 25°C) was 0.0432±0.0002 mole fraction and the Mole fraction solubility ([2]; x*DES 0.5, 30°C) was 0.0476±0.0003 mole fraction. For the same compound, the Mole fraction solubility ([2]; x*DES 0.5, 35°C) was 0.0565±0.0003 mole fraction, the Mole fraction solubility ([2]; x*DES 0.5, 40°C) was 0.0690±0.0009 mole fraction and the Mole fraction solubility ([2]; x*DES 0.6, 25°C) was 0.0543±0.0003 mole fraction. It also gave a Mole fraction solubility ([2]; x*DES 0.6, 30°C) of 0.0601±0.0005 mole fraction, a Mole fraction solubility ([2]; x*DES 0.6, 35°C) of 0.0703±0.0005 mole fraction and a Mole fraction solubility ([2]; x*DES 0.6, 40°C) of 0.0870±0.0009 mole fraction. For the same compound, the Mole fraction solubility ([2]; x*DES 0.7, 25°C) was 0.0659±0.0007 mole fraction, the Mole fraction solubility ([2]; x*DES 0.7, 30°C) was 0.0737±0.0006 mole fraction and the Mole fraction solubility ([2]; x*DES 0.7, 35°C) was 0.0862±0.0007 mole fraction. For the same compound, the Mole fraction solubility ([2]; x*DES 0.7, 40°C) was 0.1046±0.0008 mole fraction, the Mole fraction solubility ([2]; x*DES 0.8, 25°C) was 0.0797±0.0006 mole fraction and the Mole fraction solubility ([2]; x*DES 0.8, 30°C) was 0.0901±0.0008 mole fraction. For the same compound, the Mole fraction solubility ([2]; x*DES 0.8, 35°C) was 0.1042±0.0013 mole fraction, the Mole fraction solubility ([2]; x*DES 0.8, 40°C) was 0.1253±0.0010 mole fraction and the Mole fraction solubility ([2]; x*DES 0.9, 25°C) was 0.0823 mole fraction and 0.0823±0.0013 mole fraction.
